This is an account of results in ChEMBL document CHEMBL1151797, “Discovery of inhibitors of the channel-activating protease prostasin (CAP1/PRSS8) utilizing structure-based design” (Bioorg Med Chem Lett, 2008).

Molecules are shown by their SMILES. pKi: −log10 of the molar value.

Prostasin, sequence (Q16651 45-322 limits assumed, other chains not shown): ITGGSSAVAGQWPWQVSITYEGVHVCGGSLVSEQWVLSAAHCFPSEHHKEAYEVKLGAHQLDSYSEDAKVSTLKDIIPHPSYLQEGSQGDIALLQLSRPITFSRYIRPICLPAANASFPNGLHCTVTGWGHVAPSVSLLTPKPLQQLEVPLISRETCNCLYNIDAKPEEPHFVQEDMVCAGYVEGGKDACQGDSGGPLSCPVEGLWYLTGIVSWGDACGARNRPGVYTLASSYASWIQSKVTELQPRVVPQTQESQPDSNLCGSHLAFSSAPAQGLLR

The test has as its target Prostasin (Homo sapiens, UniProt Q16651). Nature of the test: Binding affinity to human prostasin.
Usually pKi stands for the Ki on a negative log10 scale, so that one unit is a factor of ten. A higher pKi goes with a low Ki. For the compound `CC(C)C[C@H](NC(=O)OCc1ccccc1)C(=O)N[C@@H](CCCCN)C(=O)c1nc2ccccc2o1`, the pKi is less than 4.00.
Under `NCCCC[C@H](NC(=O)[C@@H]1C[C@@H](OCc2ccc(C(F)(F)F)cc2)CN1C(=O)[C@@H](CCc1ccccc1)NC(=O)OCc1ccccc1)C(=O)c1nc2ccccc2o1` stands 7.55; under `CN(C)C(=O)O[C@@H]1C[C@@H](C(=O)N[C@@H](CCCCN)C(=O)c2nc3ccccc3o2)N(C(=O)[C@@H](CCc2ccccc2)NC(=O)OCc2ccccc2)C1`, 5.81; under `C[C@H]1CCN(C(=O)[C@@H](CCc2ccccc2)NC(=O)OCc2ccccc2)[C@@H]1C(=O)N[C@@H](CCCCN)C(=O)c1nc2ccccc2o1`, 7.31.
Under `CC(C)C[C@H](NC(=O)[C@H](CCCCN)NC(=O)OCc1ccccc1)C(=O)N[C@@H](CCCCN)C(=O)c1nc2ccccc2o1` stands 4.82; under `CS(=O)(=O)c1ccc(CNC(=O)O[C@@H]2C[C@@H](C(=O)N[C@@H](CCCCN)C(=O)c3nc4ccccc4o3)N(C(=O)[C@@H](CCc3ccccc3)NC(=O)OCc3ccccc3)C2)cc1`, 6.75.
Under `NCCCC[C@H](NC(=O)[C@@H]1C[C@@H](OC(=O)Nc2ccccc2)CN1C(=O)[C@@H](CCc1ccccc1)NC(=O)OCc1ccccc1)C(=O)c1nc2ccccc2o1` stands 6.89; under `NCCCC[C@H](NC(=O)[C@@H]1C[C@@H](OCc2ccccc2)CN1C(=O)[C@@H](CCc1ccccc1)NC(=O)OCc1ccccc1)C(=O)c1nc2ccccc2o1`, 7.40.
On to `NCCCC[C@H](NC(=O)[C@@H]1C[C@@H](OCc2ccc(F)cc2)CN1C(=O)[C@@H](CCc1ccccc1)NC(=O)OCc1ccccc1)C(=O)c1nc2ccccc2o1`, for which the pKi was 7.57. The pKi values of the last two compounds are within 0.2 log units of each other.
In turn, `NCCCC[C@H](NC(=O)[C@@H]1CCCN1C(=O)[C@@H](CCc1ccccc1)NC(=O)OCc1ccccc1)C(=O)c1nc2ccccc2o1` had a pKi of 5.85.
As for `NCCCC[C@H](NC(=O)[C@@H]1C[C@@H](OCc2ccc(Cl)cc2)CN1C(=O)[C@@H](CCc1ccccc1)NC(=O)OCc1ccccc1)C(=O)c1nc2ccccc2o1`, the figure is 7.92; as for `NCCCC[C@H](NC(=O)[C@@H]1C[C@@H](OC(=O)N2CCCCC2)CN1C(=O)[C@@H](CCc1ccccc1)NC(=O)OCc1ccccc1)C(=O)c1nc2ccccc2o1`, 7.54.
Under `Cc1ccc(CO[C@@H]2C[C@@H](C(=O)N[C@@H](CCCCN)C(=O)c3nc4ccccc4o3)N(C(=O)[C@@H](CCc3ccccc3)NC(=O)OCc3ccccc3)C2)cc1` stands 7.35.
As for `NCCCC[C@H](NC(=O)[C@H](CCc1ccccc1)NC(=O)[C@H](Cc1cnc[nH]1)NC(=O)OCc1ccccc1)C(=O)c1nc2ccccc2o1`, the figure is 5.68; as for `NCCCC[C@H](NC(=O)[C@@H]1C[C@@H](O)CN1C(=O)[C@@H](CCc1ccccc1)NC(=O)OCc1ccccc1)C(=O)c1nc2ccccc2o1`, 5.98.
For the compound `NCCCC[C@H](NC(=O)[C@@H]1C[C@@H](OCC2CCCC2)CN1C(=O)[C@@H](CCc1ccccc1)NC(=O)OCc1ccccc1)C(=O)c1nc2ccccc2o1`, the pKi was 7.19.
As for `NCCCC[C@H](NC(=O)[C@@H]1[C@@H](c2ccccc2)CCN1C(=O)[C@@H](CCc1ccccc1)NC(=O)OCc1ccccc1)C(=O)c1nc2ccccc2o1`, the figure is 6.57; as for `NCCCC[C@H](NC(=O)[C@@H]1C[C@@H](OC(=O)N2CCCC2)CN1C(=O)[C@@H](CCc1ccccc1)NC(=O)OCc1ccccc1)C(=O)c1nc2ccccc2o1`, 7.00.
`CC(C)C[C@H](NC(=O)[C@H](Cc1cnc[nH]1)NC(=O)OCc1ccccc1)C(=O)N[C@@H](CCCCN)C(=O)c1nc2ccccc2o1` gave a pKi of 5.24.
`NCCCC[C@H](NC(=O)[C@@H]1C[C@@H](OC(=O)NCc2ccccc2)CN1C(=O)[C@@H](CCc1ccccc1)NC(=O)OCc1ccccc1)C(=O)c1nc2ccccc2o1` had a pKi of 7.22.
On to `NCCCC[C@H](NC(=O)[C@@H]1C[C@@H](OC(=O)N2CCOCC2)CN1C(=O)[C@@H](CCc1ccccc1)NC(=O)OCc1ccccc1)C(=O)c1nc2ccccc2o1`, for which the negative logarithm of the Ki (pKi) was 6.29.
As for `NCCCC[C@H](NC(=O)[C@@H]1C[C@@H](OCc2cccc(C(F)(F)F)c2)CN1C(=O)[C@@H](CCc1ccccc1)NC(=O)OCc1ccccc1)C(=O)c1nc2ccccc2o1`, the figure is 7.39.
As for `NCCCC[C@H](NC(=O)[C@@H]1C[C@@H](OCC2CCCCC2)CN1C(=O)[C@@H](CCc1ccccc1)NC(=O)OCc1ccccc1)C(=O)c1nc2ccccc2o1`, the figure is 7.72.
`NCCCC[C@H](NC(=O)[C@H](CCc1ccccc1)NC(=O)OCc1ccccc1)C(=O)c1nc2ccccc2o1` gave a pKi of less than 4.00.
